Results from ChEMBL document CHEMBL1201862, “PubChem BioAssay data set” (2004).
Values belong to the compound of their own block, whether it stands above or below them. The source made the active and inactive calls.

Key:
Format in all cases: functional
[1] = biological target: Peroxisome proliferator-activated receptor gamma (Homo sapiens, UniProt P37231); assay: PPARg partial agonists, dose response, cell-based, luminescence, assay provider (AID 504447)
[2] = biological target: Peroxisome proliferator-activated receptor alpha (Homo sapiens, UniProt Q07869); assay: Late stage assay provider counterscreen for partial agonists of the peroxisome proliferator-activated receptor gamma (PPARg): Luminescence-based cell-based dose response assay for partial agonists of the peroxisome proliferator-activated receptor alpha (PPARA). [Related pubchem assays (depositor defined):AID1051, AID1300, AID1319, AID1679, AID1808, AID504446, AID504447, AID504452, AID504453, AID631]
Peroxisome proliferator-activated receptor alpha, sequence (Q07869 whole entry): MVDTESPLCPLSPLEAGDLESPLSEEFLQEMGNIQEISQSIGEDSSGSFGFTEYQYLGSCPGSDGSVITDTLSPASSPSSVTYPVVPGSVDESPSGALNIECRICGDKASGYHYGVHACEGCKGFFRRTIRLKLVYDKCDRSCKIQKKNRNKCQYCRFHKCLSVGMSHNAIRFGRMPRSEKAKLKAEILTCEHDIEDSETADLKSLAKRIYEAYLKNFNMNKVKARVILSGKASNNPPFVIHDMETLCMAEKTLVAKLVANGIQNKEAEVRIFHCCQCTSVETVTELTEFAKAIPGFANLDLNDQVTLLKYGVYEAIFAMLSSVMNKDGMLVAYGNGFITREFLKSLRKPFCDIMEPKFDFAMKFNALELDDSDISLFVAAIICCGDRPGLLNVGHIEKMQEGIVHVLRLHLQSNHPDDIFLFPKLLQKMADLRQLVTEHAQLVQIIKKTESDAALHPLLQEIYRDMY

[3] = biological target: T1, Cannabinoid receptor 2 (Homo sapiens, UniProt P34972); assay: SAR analysis of antagonists of the Cannabinoid Receptor 2 using an Image-Based Assay. [Related pubchem assays (depositor defined):AID2013, AID2026]
T1 sequence (P34972 whole entry): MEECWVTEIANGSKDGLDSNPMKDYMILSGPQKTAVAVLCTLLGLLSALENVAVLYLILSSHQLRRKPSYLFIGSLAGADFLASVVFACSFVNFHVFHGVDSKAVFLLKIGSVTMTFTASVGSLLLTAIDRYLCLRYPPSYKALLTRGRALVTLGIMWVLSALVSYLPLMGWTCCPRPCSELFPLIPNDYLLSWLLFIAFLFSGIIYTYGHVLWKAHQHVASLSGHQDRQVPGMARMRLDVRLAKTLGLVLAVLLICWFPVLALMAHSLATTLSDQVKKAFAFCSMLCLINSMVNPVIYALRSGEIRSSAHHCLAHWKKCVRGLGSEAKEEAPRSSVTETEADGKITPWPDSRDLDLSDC

[4] = biological target: G-protein coupled receptor 55 (Homo sapiens, UniProt Q9Y2T6); assay: GPR55 antagonists blocking LPI-driven arrestin recruitment, primary screen, imaging, U2OS, beta-arrestin-GFP, LPI agonist (AID 2013);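 note: antagonist potency measured as reduced agonist-driven arrestin aggregation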
G-protein coupled receptor 55, sequence (Q9Y2T6 whole entry): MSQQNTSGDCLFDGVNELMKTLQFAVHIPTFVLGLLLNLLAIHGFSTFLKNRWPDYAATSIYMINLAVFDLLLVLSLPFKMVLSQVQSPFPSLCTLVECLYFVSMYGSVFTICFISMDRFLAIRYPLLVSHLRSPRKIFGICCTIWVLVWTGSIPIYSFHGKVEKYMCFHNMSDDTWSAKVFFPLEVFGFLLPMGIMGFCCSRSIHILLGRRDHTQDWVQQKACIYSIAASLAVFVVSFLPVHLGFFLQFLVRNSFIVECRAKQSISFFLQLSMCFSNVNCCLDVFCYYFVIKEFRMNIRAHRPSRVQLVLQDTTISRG

[5] = biological target: T2, Cannabinoid receptor 1 (Homo sapiens, UniProt P21554); assay: SAR analysis of antagonists of the Cannabinoid Receptor 1 using an Image-Based Assay - Set 2. [Related pubchem assays (depositor defined):AID2013, AID2026]
T2 sequence (P21554 whole entry): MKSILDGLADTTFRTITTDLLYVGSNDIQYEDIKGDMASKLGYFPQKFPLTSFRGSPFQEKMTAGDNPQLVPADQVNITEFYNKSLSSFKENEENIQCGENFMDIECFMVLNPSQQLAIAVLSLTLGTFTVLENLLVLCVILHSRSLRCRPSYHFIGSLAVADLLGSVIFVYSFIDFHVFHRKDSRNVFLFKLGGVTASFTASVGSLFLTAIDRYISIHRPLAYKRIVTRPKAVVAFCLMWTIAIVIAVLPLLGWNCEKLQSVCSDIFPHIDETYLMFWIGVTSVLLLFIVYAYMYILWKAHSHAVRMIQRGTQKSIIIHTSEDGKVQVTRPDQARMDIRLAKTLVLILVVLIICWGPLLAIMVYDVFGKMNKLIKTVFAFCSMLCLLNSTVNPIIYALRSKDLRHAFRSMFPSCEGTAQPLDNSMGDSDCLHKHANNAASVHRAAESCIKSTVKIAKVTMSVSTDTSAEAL

[6] = biological target: T1, Cannabinoid receptor 2; assay: SAR analysis of agonists of the Cannabinoid Receptor 2 using an Image-Based Assay. [Related pubchem assays (depositor defined):AID2013, AID2026]
[7] = biological target: T3, G-protein coupled receptor 35 (Homo sapiens, UniProt Q9HC97); assay: SAR analysis of Agonists of the GPR35 Receptor using an Image-Based Assay - Set 2. [Related pubchem assays (depositor defined):AID2013, AID2026]
T3 sequence (Q9HC97 whole entry): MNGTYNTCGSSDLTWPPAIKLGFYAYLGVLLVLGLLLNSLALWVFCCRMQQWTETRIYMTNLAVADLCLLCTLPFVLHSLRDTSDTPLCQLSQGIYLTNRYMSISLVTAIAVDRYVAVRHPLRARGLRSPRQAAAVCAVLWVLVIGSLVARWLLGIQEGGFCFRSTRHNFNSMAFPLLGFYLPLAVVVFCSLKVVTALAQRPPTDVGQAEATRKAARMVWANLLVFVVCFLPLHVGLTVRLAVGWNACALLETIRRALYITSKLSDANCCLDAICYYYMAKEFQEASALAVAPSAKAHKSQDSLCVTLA

[8] = Luminescence Cell-Based Dose Retest to Confirm Inhibitors of Cancer Stem Cells. [Related pubchem assays (depositor defined):AID2717, AID2721]; conditions: Homo sapiens
[9] = biological target: T2, Cannabinoid receptor 1; assay: SAR analysis of agonists of the Cannabinoid Receptor 1 using an Image-Based Assay - Set 2. [Related pubchem assays (depositor defined):AID2013, AID2026]
[10] = biological target: T3, G-protein coupled receptor 35; assay: SAR analysis of Antagonists of the GPR35 Receptor using an Image-Based Assay - Set 3. [Related pubchem assays (depositor defined):AID2013, AID2026]
[11] = biological target: Intestinal-type alkaline phosphatase (Homo sapiens, UniProt P09923); assay: activation of human intestinal alkaline phosphatase – biochemical, dose response (AID 488873)
Intestinal-type alkaline phosphatase (Homo sapiens, UniProt P09923), sequence (P09923 whole entry): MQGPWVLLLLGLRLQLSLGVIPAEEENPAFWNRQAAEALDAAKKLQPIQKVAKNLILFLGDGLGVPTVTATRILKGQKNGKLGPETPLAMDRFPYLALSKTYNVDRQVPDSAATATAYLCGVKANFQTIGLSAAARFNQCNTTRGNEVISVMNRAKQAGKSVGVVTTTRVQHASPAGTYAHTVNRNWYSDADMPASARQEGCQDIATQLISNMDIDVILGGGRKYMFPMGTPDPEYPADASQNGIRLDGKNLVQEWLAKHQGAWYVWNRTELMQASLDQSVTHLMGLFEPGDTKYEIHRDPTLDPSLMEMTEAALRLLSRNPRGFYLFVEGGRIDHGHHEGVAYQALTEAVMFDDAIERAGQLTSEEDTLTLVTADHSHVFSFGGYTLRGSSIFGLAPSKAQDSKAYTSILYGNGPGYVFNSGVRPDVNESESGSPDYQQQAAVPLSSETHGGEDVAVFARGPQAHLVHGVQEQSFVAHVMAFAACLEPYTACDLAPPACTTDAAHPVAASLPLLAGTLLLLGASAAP

[12] = biological target: Albumin (Bos taurus, UniProt P02769); assay: Counterscreen for inhibitors of T-cell receptor (TCR)-CD3 interaction: Fluorescence-based biochemical high throughput dose response assay to identify inhibitors of T-cell receptor (TCR)-CD3 interaction using a TAMRA-labeled BSA probe.
Albumin, sequence (P02769 whole entry): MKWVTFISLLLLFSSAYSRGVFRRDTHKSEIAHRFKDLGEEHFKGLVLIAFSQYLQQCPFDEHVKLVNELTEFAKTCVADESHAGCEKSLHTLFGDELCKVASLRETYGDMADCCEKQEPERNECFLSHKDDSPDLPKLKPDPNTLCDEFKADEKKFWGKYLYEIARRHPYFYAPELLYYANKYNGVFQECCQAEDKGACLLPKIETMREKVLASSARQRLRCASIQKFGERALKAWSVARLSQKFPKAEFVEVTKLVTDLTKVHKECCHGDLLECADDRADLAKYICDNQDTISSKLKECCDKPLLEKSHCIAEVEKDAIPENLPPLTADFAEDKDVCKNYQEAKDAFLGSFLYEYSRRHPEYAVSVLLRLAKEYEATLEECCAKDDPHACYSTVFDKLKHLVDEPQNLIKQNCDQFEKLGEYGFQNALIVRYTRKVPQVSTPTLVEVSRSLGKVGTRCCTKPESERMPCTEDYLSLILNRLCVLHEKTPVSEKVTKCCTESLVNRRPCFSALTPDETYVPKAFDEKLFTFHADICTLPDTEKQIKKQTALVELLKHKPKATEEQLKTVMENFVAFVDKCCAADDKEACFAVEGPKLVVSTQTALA

[13] = biological target: T4, Alkaline phosphatase, tissue-nonspecific isozyme (Homo sapiens, UniProt P05186); assay: TNAP enzyme inhibition by screening hits, dose response, selectivity assay for mouse IAP inhibitor project, biochemical, human TNAP, uHTS hits (AID 488906)
T4 sequence (P05186 whole entry): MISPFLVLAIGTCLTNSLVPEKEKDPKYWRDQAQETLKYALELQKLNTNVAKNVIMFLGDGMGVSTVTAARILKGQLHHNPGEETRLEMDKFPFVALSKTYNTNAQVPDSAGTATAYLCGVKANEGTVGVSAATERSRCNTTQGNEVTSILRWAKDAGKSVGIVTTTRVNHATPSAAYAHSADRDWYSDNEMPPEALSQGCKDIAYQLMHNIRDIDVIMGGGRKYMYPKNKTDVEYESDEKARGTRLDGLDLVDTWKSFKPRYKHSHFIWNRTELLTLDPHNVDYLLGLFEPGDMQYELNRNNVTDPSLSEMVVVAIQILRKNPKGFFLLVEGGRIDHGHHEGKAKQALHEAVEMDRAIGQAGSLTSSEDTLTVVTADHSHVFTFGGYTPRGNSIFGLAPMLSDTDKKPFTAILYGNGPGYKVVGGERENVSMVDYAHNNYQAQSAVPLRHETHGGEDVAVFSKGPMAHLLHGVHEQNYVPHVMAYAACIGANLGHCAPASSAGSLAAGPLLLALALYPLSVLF

[14] = biological target: Intestinal-type alkaline phosphatase (Mus musculus, UniProt P24822); assay: PubChem AID 488785
Intestinal-type alkaline phosphatase (Mus musculus, UniProt P24822), sequence (P24822 whole entry): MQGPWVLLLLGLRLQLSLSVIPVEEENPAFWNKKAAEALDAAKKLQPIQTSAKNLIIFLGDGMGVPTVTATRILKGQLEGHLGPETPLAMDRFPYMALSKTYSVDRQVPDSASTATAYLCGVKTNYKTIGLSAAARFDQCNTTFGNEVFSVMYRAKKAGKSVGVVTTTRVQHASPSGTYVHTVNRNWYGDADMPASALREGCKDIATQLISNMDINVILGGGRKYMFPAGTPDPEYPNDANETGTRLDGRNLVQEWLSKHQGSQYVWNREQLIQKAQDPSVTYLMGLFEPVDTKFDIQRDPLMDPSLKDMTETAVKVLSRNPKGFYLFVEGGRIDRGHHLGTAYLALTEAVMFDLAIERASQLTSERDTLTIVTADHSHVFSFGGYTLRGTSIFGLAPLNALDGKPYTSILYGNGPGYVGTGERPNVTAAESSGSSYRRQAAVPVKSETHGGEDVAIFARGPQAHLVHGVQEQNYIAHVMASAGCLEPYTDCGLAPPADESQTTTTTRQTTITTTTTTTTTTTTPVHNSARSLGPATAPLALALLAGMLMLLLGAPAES
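Throughout, for AC50: cells exposed to compound for roughly 70 hours or longer before luminescence read.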

Peroxisome proliferator-activated receptor gamma, sequence (P37231 whole entry): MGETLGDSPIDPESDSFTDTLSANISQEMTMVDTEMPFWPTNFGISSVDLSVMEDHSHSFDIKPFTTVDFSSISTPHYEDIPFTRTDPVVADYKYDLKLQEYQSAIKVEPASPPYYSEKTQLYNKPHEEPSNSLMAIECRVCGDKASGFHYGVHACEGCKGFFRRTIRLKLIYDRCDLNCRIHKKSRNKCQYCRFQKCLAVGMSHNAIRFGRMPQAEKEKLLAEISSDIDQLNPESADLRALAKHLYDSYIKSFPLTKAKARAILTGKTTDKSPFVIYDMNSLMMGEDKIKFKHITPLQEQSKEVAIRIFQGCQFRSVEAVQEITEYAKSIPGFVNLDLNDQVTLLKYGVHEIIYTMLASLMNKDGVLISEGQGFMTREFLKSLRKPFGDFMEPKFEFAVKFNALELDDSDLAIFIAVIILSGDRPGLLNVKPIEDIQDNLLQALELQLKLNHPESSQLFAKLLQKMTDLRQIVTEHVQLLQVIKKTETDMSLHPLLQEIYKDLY

EC50 [1]: 2.6 µM (active)
EC50 [2]: > 3 µM (inactive)
SMILES: CCOc1cccc(/C=C2/SC(=S)N(CCC(=O)O)C2=O)c1

SMILES: Cc1cc(OCC(=O)Nc2ccc(S(=O)(=O)NC3=NCCCCC3)cc2)c(C(C)C)cc1Cl
IC50 [3]: > 32 µM (inactive)
IC50 [4]: 1.08 µM (active)
IC50 [5]: 3.16 µM (active)
EC50 [6]: > 32 µM (inactive)
EC50 [7]: > 32 µM (inactive)
AC50 [8]: 6.13 µM (active)
EC50 [9]: > 32 µM (inactive)
IC50 [10]: > 32 µM (inactive)

EC50 [11]: > 100 µM (inactive)
IC50 [12]: > 94 µM (inactive)
IC50 [13]: > 100 µM (inactive)
IC50 [14]: 11.9 µM (active)
SMILES: O=C(NNC(=S)NC(=O)c1cccs1)c1ccc(O)cc1
